This passage reports T/C results from PubChem BioAssay AID248 (DTP/NCI, 2004).

For the test, the system named is L1210 leukemia ip in BDF1 mice, survival T/C. Nature of the test: NCI In Vivo Anticancer Drug Screen. Data for tumor model L1210 Leukemia (intraperitoneal) in B6D2F1 (BDF1) mice. The following applies: endpoint: mean survival time, higher = longer survival. The essentials:
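Ratio derived from survival: compound-dosed mice over vehicle-dosed mice, all bearing a transplantable tumor.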

Where [1] appears, read: dose: 100.0 mg/kg/injection, schedule: Q01DX001 (ip), vehicle: Klucel (hydroxypropylcellulose) (HPC).
Setting [2] is: dose: 100.0 mg/kg/injection, schedule: Q01DX009 (ip), vehicle: saline with Tween-80.
Where [3] appears, read: dose: 200.0 mg/kg/injection, schedule: Q01DX001 (ip), vehicle: Klucel (hydroxypropylcellulose) (HPC).
[4] abbreviates: dose: 200.0 mg/kg/injection, schedule: Q01DX009 (ip), vehicle: saline with Tween-80.
[5] abbreviates: dose: 400.0 mg/kg/injection, schedule: Q01DX001 (ip), vehicle: Klucel (hydroxypropylcellulose) (HPC).
The mark [6] stands for this setting: dose: 400.0 mg/kg/injection, schedule: Q01DX009 (ip), vehicle: saline with Tween-80.
Where [7] appears, read: dose: 100.0 mg/kg/injection, schedule: Q01DX001 (ip), vehicle: carboxymethylcellulose (CMC).
[8] abbreviates: dose: 200.0 mg/kg/injection, schedule: Q01DX001 (ip), vehicle: carboxymethylcellulose (CMC).
Where [9] appears, read: dose: 100.0 mg/kg/injection, schedule: Q01DX009 (ip), vehicle: Klucel (hydroxypropylcellulose) (HPC).
The mark [10] stands for this setting: dose: 200.0 mg/kg/injection, schedule: Q01DX009 (ip), vehicle: Klucel (hydroxypropylcellulose) (HPC).
The mark [11] stands for this setting: dose: 400.0 mg/kg/injection, schedule: Q01DX001 (ip), vehicle: carboxymethylcellulose (CMC).
Where [12] appears, read: dose: 100.0 mg/kg/injection, schedule: Q01DX001 (ip), vehicle: saline.
Where [13] appears, read: dose: 200.0 mg/kg/injection, schedule: Q01DX001 (ip), vehicle: saline.
[14] abbreviates: dose: 400.0 mg/kg/injection, schedule: Q01DX001 (ip), vehicle: saline.

Where “and” joins values, the source holds several entries; their conditions need not be identical. Equal entries are not always repeated. Inconclusive results and toxic doses are left out.

Turning to `COc1ccc(NC(=O)Nc2ccc(Cl)cc2C)cc1`, the T/C (dose: 100.0 mg/kg/injection, schedule: Q01DX009 (sc), vehicle: olive oil, sesame oil, peanut oil) is 100 % of control; the T/C (dose: 100.0 mg/kg/injection, schedule: Q04DX003 (sc), vehicle: olive oil, sesame oil, peanut oil) is 101 % of control; the T/C (dose: 200.0 mg/kg/injection, schedule: Q01DX009 (sc), vehicle: olive oil, sesame oil, peanut oil) is 102 % of control; the T/C (dose: 200.0 mg/kg/injection, schedule: Q04DX003 (sc), vehicle: olive oil, sesame oil, peanut oil) was 100 % of control; the T/C (dose: 400.0 mg/kg/injection, schedule: Q01DX009 (sc), vehicle: olive oil, sesame oil, peanut oil) is 96 % of control; the T/C (dose: 400.0 mg/kg/injection, schedule: Q04DX003 (sc), vehicle: olive oil, sesame oil, peanut oil) is 98 % of control.

`Cc1ccc(NC(=O)COc2ccc(Cl)cc2)cc1`: the T/C (dose: 100.0 mg/kg/injection, schedule: Q04DX002 (ip), vehicle: saline + alcohol) was 103 % of control; the T/C (dose: 200.0 mg/kg/injection, schedule: Q04DX002 (ip), vehicle: saline + alcohol) was 100 % of control; the T/C (dose: 400.0 mg/kg/injection, schedule: Q04DX002 (ip), vehicle: saline + alcohol) was 92 % of control.

`O=[N+]([O-])c1ccc(N/N=C/c2ccccc2)cc1`: the T/C runs as follows: (dose: 15.0 mg/kg/injection, schedule: Q01DX Z (ip), vehicle: carboxymethylcellulose (CMC)) 91 % of control; (dose: 30.0 mg/kg/injection, schedule: Q01DX Z (ip), vehicle: carboxymethylcellulose (CMC)) 100 % of control; (dose: 60.0 mg/kg/injection, schedule: Q01DX Z (ip), vehicle: carboxymethylcellulose (CMC)) 94 % of control and 100 % of control; (dose: 120.0 mg/kg/injection, schedule: Q01DX Z (ip), vehicle: carboxymethylcellulose (CMC)) 94 % of control and 97 % of control; (dose: 240.0 mg/kg/injection, schedule: Q01DX Z (ip), vehicle: carboxymethylcellulose (CMC)) 97 % of control; (dose: 480.0 mg/kg/injection, schedule: Q01DX Z (ip), vehicle: carboxymethylcellulose (CMC)) 100 % of control.

Regarding `NCCNC(=S)S`, the T/C was 103 % of control under setting [1]; 93 % of control under setting [2]; 93 % of control (dose: 100.0 mg/kg/injection, schedule: Q04DX003 (ip), vehicle: saline with Tween-80); 95 % of control under setting [3]; 87 % of control under setting [4]; 95 % of control (dose: 200.0 mg/kg/injection, schedule: Q04DX003 (ip), vehicle: saline with Tween-80). In addition, the T/C is, setting by setting: under setting [5], 103 % of control; under setting [6], 86 % of control; (dose: 400.0 mg/kg/injection, schedule: Q04DX003 (ip), vehicle: saline with Tween-80) 91 % of control.

For the compound `C[N+]1(N[P+](=O)NN2CCCCC2)CCCCC1` (stereo not given), the T/C is, setting by setting: under setting [7], 98 % of control; under setting [8], 104 % of control.

For the compound `O=C1c2cccc3cccc(c23)C(=O)N1NCCO`, the T/C is 93 % of control under setting [9] and 89 % of control under setting [10].

`COc1cc2c(c3oc(=O)ccc13)C(=O)CC(C)(C)O2`: the T/C reads like this: under setting [9], 95 % of control; (dose: 100.0 mg/kg/injection, schedule: Q04DX003 (ip), vehicle: saline) 96 % of control; under setting [10], 91 % of control; (dose: 200.0 mg/kg/injection, schedule: Q04DX003 (ip), vehicle: saline) 102 % of control; (dose: 400.0 mg/kg/injection, schedule: Q01DX009 (ip), vehicle: Klucel (hydroxypropylcellulose) (HPC)) 95 % of control; (dose: 400.0 mg/kg/injection, schedule: Q04DX003 (ip), vehicle: saline) 98 % of control.

With `CC(=O)NCCOc1ccc([N+](=O)[O-])cc1`, the T/C is 102 % of control under setting [1], 102 % of control under setting [3] and 102 % of control under setting [5].

Turning to `Cc1ccc(C(=O)c2ccccc2N)cc1C`, the T/C under setting [7] is 100 % of control, the T/C under setting [8] was 116 % of control and the T/C under setting [11] is 102 % of control.

`O=C(Nc1ccc(Br)cc1)c1ccc(C(=O)Nc2ccc(Br)cc2)cc1`: the T/C is, setting by setting: under setting [12], 94 % of control; under setting [13], 100 % of control; under setting [14], 94 % of control.

Consider `Cc1cc(C)c2c(=O)[nH][nH]c2n1`, for which the T/C was 105 % of control (dose: 50.0 mg/kg/injection, schedule: Q01DX009 (ip), vehicle: saline with Tween-80); 100 % of control under setting [2]; 91 % of control under setting [4].

Turning to `O=C(CCC(=O)c1cccc([N+](=O)[O-])c1)NNc1ccc([N+](=O)[O-])cc1[N+](=O)[O-]`, the T/C runs as follows: under setting [2], 95 % of control; under setting [4], 105 % of control; under setting [6], 92 % of control.

`CC(C)(C=O)C(=O)Nc1ccccc1`: the T/C is 103 % of control (dose: 100.0 mg/kg/injection, schedule: Q04DX002 (ip), vehicle: saline); 106 % of control (dose: 200.0 mg/kg/injection, schedule: Q04DX002 (ip), vehicle: saline); 103 % of control (dose: 400.0 mg/kg/injection, schedule: Q04DX002 (ip), vehicle: saline).

As for `O=C(O)c1ccc(S(=O)(=O)F)c(Cl)c1`, the T/C runs as follows: under setting [2], 100 % of control; under setting [4], 102 % of control; under setting [6], 89 % of control.

On to `CCCCC(=O)C(CCC)C(=O)Nc1ccccc1` (stereo not given), for which the T/C runs as follows: (dose: 50.0 mg/kg/injection, schedule: Q04DX003 (ip), vehicle: Klucel (hydroxypropylcellulose) (HPC)) 98 % of control; under setting [7], 100 % of control; (dose: 100.0 mg/kg/injection, schedule: Q04DX003 (ip), vehicle: Klucel (hydroxypropylcellulose) (HPC)) 94 % of control and 98 % of control; under setting [8], 91 % of control; (dose: 200.0 mg/kg/injection, schedule: Q04DX003 (ip), vehicle: Klucel (hydroxypropylcellulose) (HPC)) 96 % of control and 98 % of control; under setting [11], 91 % of control. In addition, where the note is “dose: 400.0 mg/kg/injection, schedule: Q04DX003 (ip), vehicle: Klucel (hydroxypropylcellulose) (HPC)”, the T/C is 98 % of control.

As for `O=NN(CCCl)C(=O)Nc1ccc2oc(=O)c3ccccc3c2c1`, the T/C is, setting by setting: (dose: 1.25 mg/kg/injection, schedule: Q01DX001 (ip), vehicle: Klucel (hydroxypropylcellulose) (HPC)) 123 % of control; (dose: 2.5 mg/kg/injection, schedule: Q01DX001 (ip), vehicle: Klucel (hydroxypropylcellulose) (HPC)) 105 % of control; (dose: 5.0 mg/kg/injection, schedule: Q01DX001 (ip), vehicle: Klucel (hydroxypropylcellulose) (HPC)) 112 % of control; (dose: 10.0 mg/kg/injection, schedule: Q01DX001 (ip), vehicle: carboxymethylcellulose (CMC)) 150 % of control; (dose: 35.0 mg/kg/injection, schedule: Q01DX001 (ip), vehicle: carboxymethylcellulose (CMC)) 164 % of control; (dose: 150.0 mg/kg/injection, schedule: Q01DX001 (ip), vehicle: carboxymethylcellulose (CMC)) 120 % of control. Besides, the T/C reads like this: (dose: 177.0 mg/kg/injection, schedule: Q01DX009 (ip), vehicle: carboxymethylcellulose (CMC)) 101 % of control; (dose: 266.0 mg/kg/injection, schedule: Q01DX009 (ip), vehicle: carboxymethylcellulose (CMC)) 95 % of control; (dose: 400.0 mg/kg/injection, schedule: Q01DX009 (ip), vehicle: carboxymethylcellulose (CMC)) 92 % of control; (dose: 600.0 mg/kg/injection, schedule: Q01DX001 (ip), vehicle: carboxymethylcellulose (CMC)) 152 % of control; (dose: 600.0 mg/kg/injection, schedule: Q01DX009 (ip), vehicle: carboxymethylcellulose (CMC)) 87 % of control.

Regarding `Nc1nc(N)nc(SCCOCCSc2nc(N)nc(N)n2)n1`, the T/C by setting is: under setting [2], 103 % of control; under setting [4], 94 % of control; under setting [6], 92 % of control.

`Cc1cnc(C)c(C(O)c2ccccc2)n1` (stereo not given): the T/C is 98 % of control (dose: 50.0 mg/kg/injection, schedule: Q01DX001 (ip), vehicle: saline); 98 % of control under setting [12]; 112 % of control under setting [13]; 106 % of control under setting [14].
